One compound from publication PMC6394990, “Detailed characterization of the solution kinetics and thermodynamics of biotin, biocytin and HABA binding to avidin and streptavidin” (PLoS ONE, 2019) can be followed below.

For this assay, the target named is T1, streptavidin (SAV) (Streptomyces avidinii, UniProt P22629).
T1 construct: purchased Sigma Aldrich (St. Louis, MO)
The assay is described as follows: Stopped-flow association kinetics of dye-labeled biotin probes binding to streptavidin (F(t), rF(t); Arrhenius plots/global fitting). As to the method:
These reactions were carried out in a buffered solution of 10 mM Tris-HCl, 100 mM KCl, 2.5 mM MgCl2 and 1 mM CaCl2 at pH 8 and only AV-BcO reactions included pH 9 and 10. […] The deglycosylation of AV (for comparative association reactions) was carried out using the provided standard protocol with endoglycosidase H [47], both with and without incubation of a denaturant solution (2% SDS and 1M 2-mercaptoethanol).
The reactions were collected with the SF instrument, described previously. […] The AC(t) and DC(t) data were baseline corrected before obtaining the signal ratio (Eq 4) as a function of time (ρt).
The constant AGain is the instrumental amplitude gain and was evaluated by solving ρ(t) using the known steady state anisotropy (rss) of the complexes which is equivalent to the r(t) at t = ∞; and H, obtained from the equivalent grating factor (G) for the filters and photo multiplier tubes in the SF. For the probes used in here G was 0.82 and H = (1-G)/(1+G) = 0.099. Knowing Again and H, the AC(t) and DC(t) signals can be solved for r(t) and F(t) (Eqs 4 and 5) and the normalized fluorescence, F¯(t) , and corrected fluorescence anisotropy, rF¯(t), were obtained when F¯(0) and rF¯(0) were scaled to 1 at t = 0.
The F¯(t) (Eq 6) is equivalent to (I||) + 2 (I⊥) and proportional to quantum yield (QYi), molar absorptivity (εi) and to the formation or disappearance of the emitting species Xi(t); and rF¯(t) including the steady state anisotropies (rss) of each fluorescent species (Eq 7).
The possible reaction models were discriminated by the squared residuals of the observed and calculated association traces of both fluorescence and anisotropy fluorescence signals, F¯(t) and rF¯(t) , respectively.

Setting [1] is: SAV, average over the dye-labeled B7 probes, used for SAV-B7.
The mark [2] stands for this setting: SAV, average over the dye-labeled B7 probes, used for SAV-B7, listed as B.

Values joined by “and” are separate entries in the source; they are usually repeats but may differ in a detail not shown here. Equal entries are not always repeated.

T1 sequence (P22629 25-183): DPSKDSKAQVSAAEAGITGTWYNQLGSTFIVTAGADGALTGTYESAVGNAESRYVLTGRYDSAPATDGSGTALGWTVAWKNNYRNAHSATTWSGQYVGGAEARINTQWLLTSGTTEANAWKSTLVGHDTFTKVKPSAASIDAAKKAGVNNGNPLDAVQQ

Regarding `O=C(O)CCCC[C@@H]1SC[C@@H]2NC(=O)N[C@@H]21` [B7, d-biotin], where the note is “SAV-B”, the “Eaon + (-∆H°)” value was 30.9 ± 2.5 kcal/mol, the “∆G°ǂ + (-∆G°)” value is listed as 22.2 ± 1.0 kcal/mol and the “∆S°ǂ + (-∆S°)” value is 27.7 ± 2.0 cal/mol°K. Also, for the setting “SAV-B7, column 3 minus 4”, the “ΔE = Ea^Forward-Ea^Backward” value was -23.4 ± 4.0 kcal/mol; the “ΔG° ^ǂ, Forward -ΔG° ^ǂ, Backward” value was -19.6 ± 2.5 kcal/mol; the “ΔS° ^ǂ, Forward -ΔS° ^ǂ, Backward” value is listed as -18.1 ± 4.5 cal/mol°K. Further, the “fold slower than 10^9 M^-1s^-1 (diffusion limited)” value (SAV, 25°C) is given as 13-400 X. Under setting [1], the “ΔG^ǂ, Forward” value was 4.0 ± 0.6 kcal/mol and 4.0 kcal/mol; the “ΔS^ǂ, Forward” value was 6.7 ± 1.6 cal/°K·mol and 6.7 cal/°K·mol. Besides, under setting [2], the “Ea^Forward” value came out at 6.0 ± 1.0 kcal/mol and the “ΔS^ǂ, Forward” value was 6.7 ± 2.0 cal/°K·mol.
